The nature of series [1]: pH of the agent solutions. The class given is physicochemical.
Series [2] is described as follows: Redox potential measurement against Ag/AgCl reference electrode. To be noted: for Redox potential: urea-H2O2 with H2O2 content of 15%. Type of series: physicochemical.
The nature of series [3]: Terbinafine diffusion study (ChubTur diffusion cell). The class given is in vitro ADME, human. The method, then: Human nail samples (full thickness) of ca. 3 mm diameter were positioned between the two halves of the specifically designed ChubTur™ diffusion cell and clamped together. The receptor compartment was filled with a previously sonicated suitable buffer system to ensure sink conditions and the cells were fixed on a perspex holder mounted on a magnetic stirrer in a water bath maintained at 32° C. The receptor chamber contents were continuously agitated by small PTFE-coated magnetic followers driven by a submersible magnetic stirrer. A known amount of formulation/drug solution was applied to the surface of the nail (infinite dose) and at regular time intervals samples of buffer were taken from the receptor compartment, replaced with fresh receptor medium and assayed for drug content using HPLC.

Setting [4] is: Urea-H2O2, H2O2 content 0.0025 % w/w, n = 3.
[5] abbreviates: Urea-H2O2, H2O2 content 0.005 % w/w, n = 3.
The mark [6] stands for this setting: Urea-H2O2, H2O2 content 0.025 % w/w, n = 3.
[7] abbreviates: Urea-H2O2, H2O2 content 0.05 % w/w, n = 3.
The mark [8] stands for this setting: Urea-H2O2, H2O2 content 0.5 % w/w, n = 3.
The mark [9] stands for this setting: Urea-H2O2, H2O2 content 5 % w/w, n = 3.
[10] abbreviates: Urea-H2O2, H2O2 content 10 % w/w, n = 3.
[11] abbreviates: Urea-H2O2, H2O2 content 15 % w/w, n = 3.
The mark [12] stands for this setting: Urea-H2O2, H2O2 content 16.25 % w/w, n = 3.
The mark [13] stands for this setting: Urea-H2O2, H2O2 content 17.5 % w/w, n = 3.
Where [14] appears, read: DTT concentration 0.005 % w/w, n = 2.
Where [15] appears, read: DTT concentration 0.01 % w/w, n = 2.
Where [16] appears, read: DTT concentration 0.05 % w/w, n = 2.
Where [17] appears, read: DTT concentration 0.1 % w/w, n = 2.
The mark [18] stands for this setting: DTT concentration 1 % w/w, n = 2.
Where [19] appears, read: DTT concentration 5 % w/w, n = 2.
Where [20] appears, read: DTT concentration 7.5 % w/w, n = 2.
Where [21] appears, read: DTT concentration 10 % w/w, n = 2.
The mark [22] stands for this setting: H2O2 concentration 0.005 % w/w, n = 3.
[23] abbreviates: H2O2 concentration 0.01 % w/w, n = 3.
[24] abbreviates: H2O2 concentration 0.05 % w/w, n = 3.
Where [25] appears, read: H2O2 concentration 0.1 % w/w, n = 3.
[26] abbreviates: H2O2 concentration 1 % w/w, n = 3.
Where [27] appears, read: H2O2 concentration 10 % w/w, n = 3.
[28] abbreviates: H2O2 concentration 20 % w/w, n = 3.
[29] abbreviates: H2O2 concentration 30 % w/w, n = 3.
The mark [30] stands for this setting: H2O2 concentration 32.5 % w/w, n = 3.
[31] abbreviates: H2O2 concentration 35 % w/w, n = 3.

Structures are written as SMILES.

Regarding `O=S(=O)([O-])OOS(=O)(=O)[O-].[K+].[K+]` [Potassium persulphate], in series [1] (0.5M concentration, n = 3), the “Mean pH” value is 2.83. For the same compound, in series [2] (0.5M concentration, n = 3), the “Mean Redox Potential” value came out at 402.5 mV.
On to `CN(C/C=C/C#CC(C)(C)C)Cc1cccc2ccccc12` [terbinafine], for which the “amount of drug penetrated the nail” value in series [3] (nails soaked in 50:50 ethanol/water (control) for 20 h before drug, after 214 h) was 44±13 μg per cm^2. Besides, the “amount of drug penetrating the nail” value is recorded as “less than 10 μg per cm^2” in series [3] (pre-treatment with TA then urea-H2O2 for 30 min); “less than 10 μg per cm^2” in series [3] (pre-treatment with TA then urea-H2O2 for 1 h); 861±135 μg per cm^2 in series [3] (pre-treatment with thioglycolic acid alone); 47±33 μg per cm^2 in series [3] (pre-treatment with urea-hydrogen peroxide alone); 2308±1332 μg per cm^2 in series [3] (thioglycolic acid and urea-H2O2 applied sequentially prior to terbinafine, after 219 h). Also, in series [3] (pre-treatment with TA then urea-H2O2 for up to 20 h each, after 315 h), the “amount of terbinafine penetrating the human nail” value was found to be 3329±1842 μg per cm^2. Also, the “effect of pre-treatment on the amount of drug penetrating the nail” value in series [3] (pre-treatment with urea-hydrogen peroxide versus control, p>0.05, ANOVA) is “no significant effect”.
Regarding `O=C([O-])CS.[Na+]` [Sodium thioglycolate], the “Mean pH” value in series [1] (0.5M concentration, n = 3) is 6.90. Besides, the “Mean Redox Potential” value in series [2] (0.5M concentration, n = 3) is given as −281.7 mV.
For `O=c1cc[nH]c(=S)[nH]1` [Thiouracil], in that order: 6.28 and 53.4 mV.
With `NC(N)=O.OO` [Urea hydrogen Peroxide, Urea hydrogen peroxide addition compound], the “Mean pH” value in series [1] (0.5M concentration, n = 3) came to 2.72; in series [1] (setting [4]) it was 6.07; in series [1] (setting [5]), 6.17; in series [1] (setting [6]), 6.56; in series [1] (setting [7]) it was 6.81; in series [1] (setting [8]), 5.31. The “Mean pH” value was 5.10 in series [1] (setting [9]); 4.23 in series [1] (setting [10]); 4.04 in series [1] (setting [11]); 3.87 in series [1] (setting [12]); 3.33 in series [1] (setting [13]). In addition, the “Mean Redox Potential” value in series [2] (0.5M concentration, n = 3) amounted to 349.7 mV; in series [2] (setting [4]) it was 189.4 mV; in series [2] (setting [5]), 191.3 mV; in series [2] (setting [6]), 199.5 mV; in series [2] (setting [7]), 208.1 mV; in series [2] (setting [8]), 293.6 mV. Moreover, the “Mean Redox Potential” value in series [2] (setting [9]) is reported as 372.3 mV; in series [2] (setting [10]), 377.9 mV; in series [2] (setting [11]), 380.3 mV; in series [2] (setting [12]), 382.9 mV; in series [2] (setting [13]), 382.3 mV. For the same compound, the Redox potential is reported as 459.8 mV in series [2] (approximate pH 2 (adjusted using HCl and NaOH), n = 3); 334.1 mV in series [2] (approximate pH 4 (adjusted using HCl and NaOH), n = 3); 284.0 mV in series [2] (approximate pH 6 (adjusted using HCl and NaOH), n = 3); 194.2 mV in series [2] (approximate pH 8 (adjusted using HCl and NaOH), n = 3); 16.1 mV in series [2] (approximate pH 10 (adjusted using HCl and NaOH), n = 3).
In the case of `O=C(O)CO` [Glycolic acid], the “Mean pH” value in series [1] (0.5M concentration, n = 3) was 2.03. Moreover, the “Mean Redox Potential” value in series [2] (0.5M concentration, n = 3) stood at 247.7 mV.
For `O=C(O)/C=C/c1ccc(O)cc1` [p-coumaric acid] the same measures were 3.54 and 114.1 mV.
Turning to `O[C@@H](CS)[C@@H](O)CS` (racemic) [DTT, 1,4-dithio-DL-threitol], the “Mean pH” value is 2.64 in series [1] (0.5M concentration, n = 3); 8.07 in series [1] (setting [14]); 8.00 in series [1] (setting [15]); 7.80 in series [1] (setting [16]); 7.59 in series [1] (setting [17]); 7.01 in series [1] (setting [18]). In addition, the “Mean pH” value was found to be 6.20 in series [1] (setting [19]), 6.24 in series [1] (setting [20]) and 5.69 in series [1] (setting [21]). Besides, the “Mean Redox Potential” value in series [2] (0.5M concentration, n = 3) was −241.0 mV; in series [2] (setting [14]), −122.7; in series [2] (setting [15]) it was −134.9; in series [2] (setting [16]) it was −169.19; in series [2] (setting [17]), −189.65; in series [2] (setting [18]), −185.75. In addition, the results for the Mean Redox Potential in series [2] (setting [19]), in series [2] (setting [20]) and in series [2] (setting [21]) were −201.25, −209.65 and −193.1, respectively.
As to `OO` [Hydrogen peroxide], the “Mean pH” value in series [1] (0.5M concentration, n = 3) was 6.21; in series [1] (setting [22]), 7.56; in series [1] (setting [23]), 7.46; in series [1] (setting [24]), 6.78; in series [1] (setting [25]), 6.71; in series [1] (setting [26]), 6.17. Further, the “Mean pH” value is 3.79 in series [1] (setting [27]); 3.16 in series [1] (setting [28]); 2.64 in series [1] (setting [29]); 2.54 in series [1] (setting [30]); 2.55 in series [1] (setting [31]). The “Mean Redox Potential” value came to 277.3 mV in series [2] (0.5M concentration, n = 3); 142.3 in series [2] (setting [22]); 153.0 in series [2] (setting [23]); 200.4 in series [2] (setting [24]); 193.5 in series [2] (setting [25]); 231.6 in series [2] (setting [26]). For the same compound, the Mean Redox Potential in series [2] (setting [27]) was found to be 357.2; in series [2] (setting [28]), 402.8; in series [2] (setting [29]), 430.4; in series [2] (setting [30]) it was 437.9; in series [2] (setting [31]), 444.5.
For `N.O=C(O)CS` [Ammonium thioglycolate], in series [1] (0.5M concentration, n = 3), the “Mean pH” value amounted to 6.29. In addition, the “Mean Redox Potential” value in series [2] (0.5M concentration, n = 3) was −235.9 mV.
For `Oc1cccc(O)c1` [Resorcinol], in that order: 5.67 and 8.6 mV.
For `CC12CCC(CC1)C(C)(C)O2` [Cineol], in that order: 5.91 and 67.2 mV.
For the compound `O=C([O-])CS.O=C([O-])CS.[Ca+2]` [Calcium thioglycolate], the “Mean pH” value in series [1] (0.5M concentration, n = 3) is 11.74. Further, the “pH of solution prior to application” value in series [1] (5% concentration, solution applied to nail (FIG. 7)) is 11.43. Moreover, the “Mean Redox Potential” value in series [2] (0.5M concentration, n = 3) is −531.3 mV.
On to `Cl.N[C@@H](CS)C(=O)O.O` [Cysteine, L-Cysteine hydrochloride hydrate], for which, in series [2] (0.5M concentration, n = 3), the “Mean Redox Potential” value was −79.3 mV.
`O=C(O)C(=O)O` [Oxalic acid]: the “Mean pH” value in series [1] (0.5M concentration, n = 3) is on record as 1.33. For the same compound, in series [2] (0.5M concentration, n = 3), the “Mean Redox Potential” value is on record as 254.8 mV.
